These results are taken from publication PMC7802075 (ACS Infectious Diseases, 2020).

Counter-ions that a name gives are not always drawn.

One test concerns the target T1, LmjIPCS (inositol phosphorylceramide synthase from L. major) (Leishmania major, UniProt E9AFX2).
T1 sequence (E9AFX2 1-338): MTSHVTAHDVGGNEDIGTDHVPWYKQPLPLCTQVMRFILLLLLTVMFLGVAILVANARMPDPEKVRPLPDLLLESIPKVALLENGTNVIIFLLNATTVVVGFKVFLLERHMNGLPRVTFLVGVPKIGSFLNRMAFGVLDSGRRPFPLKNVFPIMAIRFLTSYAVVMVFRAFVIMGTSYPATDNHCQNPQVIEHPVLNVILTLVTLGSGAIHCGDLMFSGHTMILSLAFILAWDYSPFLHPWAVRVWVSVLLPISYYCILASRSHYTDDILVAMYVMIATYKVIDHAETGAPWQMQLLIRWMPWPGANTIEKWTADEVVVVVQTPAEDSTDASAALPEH
Nature of the test: biochemical. It is filed as biochemical. On the set-up: inhibition: dose or concentration left out as unconfirmed.
Conditions: not given
In the case of `CC(=O)OCC[N+](C)(C)C` [ACETYLCHOLINE], the “20mM inhibition LmjIPCS” value is recorded as 58%.

Take `CC(=O)N[C@@H](CS)C(=O)O` [ACETYLCYSTEINE]: the “20mM inhibition LmjIPCS” value amounted to 53%.

`CC(=O)N[C@@H]1[C@@H](O)[C@H](O)[C@@H](CO)O[C@H]1O` [ACETYLGLUCOSAMINE]: the “20mM inhibition LmjIPCS” value is recorded as -19%.

For the compound `N[C@H](C(=O)O)[C@@H]1CC(Cl)=NO1` [ACIVICIN], the “20mM inhibition LmjIPCS” value was found to be 39%.

Regarding `CCCCCCc1ccc(O)cc1O.Nc1c2ccccc2nc2ccccc12` [ACRISORCIN], the “20mM inhibition LmjIPCS” value is given as 30%.

On to `Nc1ncnc2c1ncn2[C@@H]1O[C@H](CO)[C@@H](O)[C@H]1O` [ADENOSINE], for which the “20mM inhibition LmjIPCS” value was found to be 41%.

As for `O=c1ccc2cc(O[C@@H]3O[C@H](CO)[C@@H](O)[C@H](O)[C@H]3O)c(O)cc2o1` [AESCULIN], the “20mM inhibition LmjIPCS” value was determined as 10%.

For the compound `CC[C@@]1(O)C[C@H](O[C@H]2C[C@H](N(C)C)[C@H](O)[C@H](C)O2)c2c(cc3c(c2O)C(=O)c2c(O)cccc2C3=O)[C@H]1C(=O)OC` [AKLAVINE], the “20mM inhibition LmjIPCS” value is 59%.

In the case of `CC(N)C(=O)OC(C)(C)Cc1ccc(Cl)cc1` (centres unmarked) [ALAPROCLATE], the “20mM inhibition LmjIPCS” value is reported as 36%.

With `COc1cc2nc(N(C)CCCNC(=O)C3CCCO3)nc(N)c2cc1OC` (centres unmarked) [ALFLUZOCIN], the “20mM inhibition LmjIPCS” value is given as 8%.

Turning to `Oc1ncnc2[nH]ncc12` [ALLOPURINOL], the “20mM inhibition LmjIPCS” value stood at 56%.

For the compound `Nc1c(Br)cc(Br)cc1CN[C@H]1CC[C@H](O)CC1` [AMBROXOL], the “20mM inhibition LmjIPCS” value amounted to 53%.

The test is the same for the next values; noted with them: NINDS set screen, single concentration 20mM as printed.
On to `CNC[C@H](O)c1ccc(O)c(O)c1.O=C(O)C(O)C(O)C(=O)O` [ADRENALINE BITARTRATE], for which the “20mM inhibition LmjIPCS” value is -5.34%.

Still in this test, the particulars now being: NINDS set screen, single concentration printed as 20mM.
`CCN(CC)CCOC(=O)C(c1ccccc1)c1ccccc1` [ADIPHENINE]: the “20mM inhibition LmjIPCS” value is listed as 51%.

`CCCCC(CC)CNC(=N)NC(=N)NCCCCCCNC(=N)NC(=N)NCC(CC)CCCC` (centres unmarked) [ALEXIDINE]: the “20mM inhibition LmjIPCS” value is 47%.

The test is the same for the next values; noted with them: NINDS set screen; read-out: inhibition LmjIPCS.
Take `C=CCSCC1Nc2cc(Cl)c(S(N)(=O)=O)cc2S(=O)(=O)N1` (centres unmarked) [ALTHIAZIDE]: the inhibition came to 11%.

Staying with this test, now noted: read-out: 20mM inhibition LmjIPCS.
`CC(=O)N[C@@H](CC(C)C)C(=O)O` [ACETYL-L-LEUCINE]: the inhibition at 20000 µM worked out at 8%.

Regarding `CC(=O)O[C@H](CC(=O)[O-])C[N+](C)(C)C` [ACETYLCARNITINE], the inhibition at 20000 µM was -17%.

In the case of `CC(=O)N[C@@H](Cc1c[nH]c2ccccc12)C(=O)O` [ACETYLTRYPTOPHAN], the inhibition at 20000 µM is -17%.

As to `CC(=O)N[C@@H](CCC(=O)O)C(=O)O` [ACET[…]], the inhibition at 20000 µM is -20%.

Take `Nc1nc2c(ncn2COCCO)c(=O)[nH]1` [ACYCLOVIR]: the inhibition at 20000 µM was 5%.

In the case of `NCCCCN=C(N)N` [AGMATINE SULFATE], the inhibition at 20000 µM came out at 24%.

For the compound `CC[C@H]1[C@@H]2C[C@H]3[C@@H]4N(C)c5ccccc5[C@]45C[C@@H]([C@H]2[C@H]5O)N3[C@@H]1O` [AJMALINE], the inhibition at 20000 µM came out at 23%.

As to `NC(=O)NC1NC(=O)NC1=O` (centres unmarked) [ALLANTOIN], the inhibition at 20000 µM was 18%.

On to `O=C1NC(=O)C(=O)C(=O)N1` [ALLOXAN], for which the inhibition at 20000 µM was -1.11%.

With `CN(C)CCc1c[nH]c2ccc(CS(=O)(=O)N3CCCC3)cc12` [ALMOTRIPTAN], the inhibition at 20000 µM was found to be 5%.

On to `CN(C)c1nc(N(C)C)nc(N(C)C)n1` [ALTRETAMINE], for which the inhibition at 20000 µM is 4%.

With `NC12CC3CC(CC(C3)C1)C2` [AMANTADINE], the inhibition at 20000 µM came out at 30%.

Staying with this test, now noted: screening of NINDS set, sheet Screen 1; read-out: inhibition LmjIPCS.
`CCOC(=O)C(Cc1ccc(O)cc1)NC(C)=O` (centres unmarked) [ACETYL TYROSINE ETHYL ESTER]: the inhibition turned out to be 3%.

On to `CC(=O)N[C@@H](Cc1c[nH]c2ccccc12)C(N)=O` [ACETYLTRYPTOPHANAMIDE], for which the inhibition was 1.65%.

Turning to `CC(=O)NCCCCCC(=O)O` [ACEXAMIC ACID], the inhibition is 6%.

`NC(=O)c1ccc([N+](=O)[O-])cc1Cl` [AKLOMIDE]: the inhibition came to 4%.
